Assay results taken from article PMC3345088 (Journal of Immunology (Baltimore, Md. : 1950), 2012).
Like-named read-outs stand apart in the source and are kept apart here.

Experiments:
[1] = test system: HLA class II alleles; parameters: species or system human
[2] = biological target: DRB1*01:01 (Homo sapiens, UniProt P01903+P01911, A100R/D57E/F55L/F60I/F76Y/I96L/L162R/M171V/P40L/Q125E/R42F/V115G/Y59C); experiment: MHC-peptide binding assay
[3] = test system: CD4+ T cells from LTBI donors; experiment: HLA locus restriction, antibody inhibition IFNγ ELISPOT; assay type: cell-based, human; details: antibodies 10 µg/ml against HLA-DR, DP or DQ

CFP10 40–54: 15-mer peptide epitope, residues 40–54 of CFP10 (Rv3874) (QGQWRGAAGTAAQAA; UniProt P9WNK5 40-54, looked up, fragment)
Donors that responded expressing DRB1*01:01 [1]: 3 of 4
Binding to DRB1*01:01 [2]: high affinity
Restricting HLA locus ([3]; donor TU7): DP, DQ, DR

CFP10 52–66: 15-mer peptide epitope, residues 52–66 of CFP10 (Rv3874)
No. donors expressing allele resp. [1]: 4 of 5
No. donors expressing allele resp. ([1]; listed as CFP10_52–66): 4 out of 5

CFP10 72–86: 15-mer peptide epitope, residues 72–86 of CFP10 (Rv3874) (ISTNIRQAGVQYSRA; UniProt P9WNK5 72-86, looked up, fragment)
Restricting HLA locus ([3]; donor TU2): DP, DQ, DR
Restricting HLA locus ([3]; donor TU11): DP, DQ, DR

ESAT-6 3–17: 15-mer peptide epitope, residues 3–17 of ESAT-6 (Rv3875) (EQQWNFAGIEAAASA; UniProt P9WNK7 3-17, looked up, fragment)
Restricting HLA locus ([3]; donor TU25): DQ, DR

ESAT-6 73–87: 15-mer peptide epitope, residues 73–87 of ESAT-6 (Rv3875) (ARTISEAGQAMASTE; UniProt P9WNK7 73-87, looked up, fragment)
No. donors expressing allele resp. [1]: 3 of 5
No. donors expressing allele resp. ([1]; listed as ESAT-6_72–87): 3 out of 5

Rv2031c 106–120: 15-mer peptide epitope, residues 106–120 of Rv2031c (hspX) (VGADEDDIKATYDKG; UniProt P9WMK1 106-120, looked up, fragment)
Restricting HLA locus ([3]; donor TU2): DP, DR
Restricting HLA locus ([3]; donor TU8): DP, DQ, DR
Restricting HLA locus ([3]; donor TU29): DP, DR
